{
  "source": "patent US20220401429A1",
  "about": "“USE OF ANAMORELIN TO TREAT CANCER-RELATED FATIGUE” (Helsinn Healthcare SA, priority 2021, published 2022)",
  "format_in_all_cases": "in vivo, human",
  "key": {"[1]": {"test_system": "patients with advanced cancer", "experiment": "Physical performance tests (30 second chair stand test, 6-minute walk test), Example 1 study", "conditions": "Day 43 vs baseline, 100 mg oral daily + physical activity + nutritional counseling", "experimental": "(§1) In this single arm study, 38 patients were intended for treatment with anamorelin for 6 weeks with an optional extension phase of 6 more weeks based on tolerability and safety and patient willingness. Patients received anamorelin 100 mg tablets and physical activity for 6 weeks for the intervention phase. Patients took 1 tablet orally while fasting (at least 1 hour before a meal).\n(§2) Exploratory objectives of the study were to explore the effects of anamorelin and standardized physical activity and nutritional counseling on muscle function (as measured by the 30 second chair stand test, 6 minute walk test, day time activity (accelerometer), body composition (as measured by INBODY), and Resting Energy Expenditure (measured by indirect calorimetry)\nMeasures: We used the 30 second chair stand test, six-minute walk test, and an accelerometer. A self-report exercise questionnaire, the Godin Leisure-Time physical activity questionnaire, was used to complement the objective measures. […]\n(§3) Physical Performance Tests: The 30 second chair stand test, 6-minute walk test, and Godin Leisure-Time physical activity questionnaire were administered at baseline and on Day 43. The 30 second sit-to-stand task assessed lower body strength (Rikli and Jones 1999).\nIn the six-minute walk test, participants were asked to walk as fast and as far as they can for six minutes, and the distance walked was measured. […]"}, "[2]": {"test_system": "patients with advanced cancer", "experiment": "Godin Leisure-Time physical activity questionnaire, Example 1 study", "conditions": "Day 86 (N = 8), change from baseline, 100 mg oral daily + physical activity + nutritional counseling", "experimental": "as §1\n(§4) Measures: We used the 30 second chair stand test, six-minute walk test, and an accelerometer. A self-report exercise questionnaire, the Godin Leisure-Time physical activity questionnaire, was used to complement the objective measures. IM Systems-three dimensional accelerometers (“Biotrainer-Pro”) was used to objectively measure physical activity.\nas §3\nThe Godin Leisure-Time physical activity questionnaire asks participants how many times per week on average they participate in strenuous, moderate and mild exercises for more than 15 minutes during their free time. […]"}, "[3]": {"test_system": "patients with advanced cancer", "experiment": "FACIT-F fatigue subscale, single arm study of anamorelin (Example 1)", "conditions": "for FACIT-F Fatigue Subscale, change, Mean (±SD): change from baseline, 100 mg oral daily + physical activity + nutritional counseling", "description": "This study was undertaken to isolate and evaluate anamorelin's effect on fatigue, energy expenditure, and other side effects of cancer in a cancer-stricken population, by including in the study population only those patients suffering significant levels of fatigue and inflammatory activity, excluding from the study population confounding factors such as depression and anemia, and controlling for a consistent level of nutrition and physical exercise.\nas §1\n• diagnosis of advanced cancer (metastatic or recurrent incurable solid tumors excluding prostate cancer) • fatigue on FACIT-F subscale of ≤34 on a 0 to 52 scale [in which 52=no fatigue and 0=worst possible fatigue] • CRP ≥3 mg/L* in the absence of any other more likely cause of increased CRP like an infection or an autoimmune disorder • unintentional weight loss of from 2% to 15% at any time within the previous 12 months • No evidence of moderate to severe depression as determined by a HADS depression score of ≤13 • Hemoglobin level ≥9 g/dL\nA primary objective of the study was to examine the effects of anamorelin and standardized physical activity and nutritional counseling on changes in the Functional Assessment of […] (FACIT-F) subscale score at Day 43±3 days compared to baseline in patients with advanced cancer receiving oral anamorelin 100 mg daily and standardized physical activity and nutritional counseling.\nFACIT-F is a well-validated QOL instrument in cancer patients (Cella, Tulsky et al. 1993). The 13-item fatigue subscale is a patient-rated assessment of intensity of fatigue and its related symptoms on a scale of 0 to 4."}, "[4]": {"test_system": "patients with advanced cancer", "experiment": "Daytime activity by accelerometer (actigraphy), Example 1 study", "conditions": "100 mg oral daily + physical activity + nutritional counseling", "experimental": "as §1, §2, §4"}, "[5]": {"test_system": "patients with advanced cancer", "experiment": "Pittsburgh Sleep Quality Index (PSQI), Example 1 study", "conditions": "100 mg oral daily + physical activity + nutritional counseling", "experimental": "as §1"}},
  "data": [
    {"smiles": "CN(C)N(C)C(=O)[C@@]1(Cc2ccccc2)CCCN(C(=O)[C@@H](Cc2c[nH]c3ccccc23)NC(=O)C(C)(C)N)C1", "note": "[anamorelin]", "values": [
      {"measurement": "Improvement in the physical performance outcomes", "setting": "[1]", "value": "no significant improvement"},
      {"measurement": "Godin Leisure Test Total, change, Mean (±SD)", "setting": "[2]", "value": "−0.67 (±6.35),"},
      {"measurement": "FACIT-F increase from baseline, linear mixed model with time as categorical variable", "setting": "[3]; 43-day measure", "value": 4.89},
      {"measurement": "FACIT-F Fatigue Subscale, change, Mean (±SD)", "setting": "[3]; Day 15 (N = 28)", "value": "3.89 (±8.71),"},
      {"measurement": "FACIT-F Fatigue Subscale, change, Mean (±SD)", "setting": "[3]; Day 29 (N = 28)", "value": "6.32 (±9.53),"},
      {"measurement": "FACIT-F Fatigue Subscale, change, Mean (±SD)", "setting": "[3]; Day 86 (N = 8)", "value": "8.13 (±12.62),"},
      {"measurement": "Effect size for improvement in CRF", "setting": "[3]; this study, FACIT-F Day 43 (Cohen's D)", "value": 0.37},
      {"measurement": "FACIT-F average increase over time, linear mixed model", "setting": "[3]; time effect, FIG. 1", "value": 0.11, "unit": "units per day"},
      {"measurement": "Improvement in mean daytime activity (actigraphy activity measure)", "setting": "[4]", "value": "no significant improvement"},
      {"measurement": "PSQI (N = 15), change, Mean (±SD)", "setting": "[5]; Day 29, change from baseline", "value": "−0.09 (±4.18),"},
      {"measurement": "PSQI (N = 15), change, Mean (±SD)", "setting": "[5]; Day 43, change from baseline", "value": "−0.09 (±2.12),"},
      {"measurement": "PSQI (N = 15), change, Mean (±SD)", "setting": "[5]; Day 86, change from baseline", "value": "−0.50 (±2.95),"}
    ]}
  ]
}
